{
  "source": "patent US20220331500A1",
  "about": "“DIALYZER” (SCHOOL JURIDICAL PERSON THE KITASATO INSTITUTE, priority 2019, published 2022)",
  "key": {"[1]": {"conditions": "NO donor, NO release; cited from earlier work"}, "Sprague Dawley rats [2]": {"test_system": "Sprague Dawley rats", "method": "Blood dialysis of rats was performed by changing the amount of nitrite to be supplied to the dialysate, and the optimal concentration of nitrite was examined.\n(§1) Male Sprague Dawley rats (body weight: 300 g to 400 g) that were 8 to 12 weeks old were used. The rats were inhaled and anesthetized using isoflurane 1.5% to 3.0% as an anesthetic. Blood was removed from the carotid artery, and blood was returned into the tail vein. The blood flow rate was 0.5 mL/min to 1.0 mL/min, the dialysate flow rate was 3 mL/min, and the blood dialysis was performed for 4 hours by a parallel flow operation. Heparin was administered at 0.7 units/g at the start of dialysis.\nAs the dialysis unit (dialyzer), a small rat dialyzer having a cellulose triacetate membrane, 140 hollow fibers, an effective length of 146 mm, and a membrane area of 0.014 m^2 were used.\n(§2) Dialysates in which the sodium nitrite concentration was adjusted to be 40 μM, 80 μM, and 120 μM were used. As a control group, a dialysate containing no sodium nitrite was used.\n(§3) During the experiment, arterial pressure, dialyzer inlet pressure, and venous pressure were measured at intervals of 15 minutes. Additionally, methemoglobin (Met-Hb) was measured at the start of the experiment and then at intervals of 60 minutes. Additionally, after the circulation was ended, the dialyzer was washed, and the amount of residual blood hemoglobin (Hb) amount and the activity value of residual blood lactate dehydrogenase (LDH) were measured.\nThe experiment was performed with a circulation time of 4 hours. When the dialyzer inlet pressure or venous pressure exceeded 250 mmHg, the circulation was ended."}, "Sprague Dawley rats [3]": {"test_system": "Sprague Dawley rats", "conditions": "all groups (40, 80, 120 μM sodium nitrite)", "method": "as §1, §2, §3"}, "Sprague Dawley rats [4]": {"test_system": "Sprague Dawley rats", "method": "as §1, §2, §3\nAfter the end of 4 hours of circulation, the dialyzer was washed with 10 mL of Lactec Injection and then a 0.5% Triton (Registered trademark) solution was circulated for 2 hours. After that, an LDH activity value in a washing solution was measured using a commercially available kit (“Cytotoxicity Measurement KitPLUS (LDH)” made by Roche Diagnostics K.K.) and used as the residual blood LDH activity value.", "remark": "listed apart in the source"}, "Sprague Dawley rats [5]": {"test_system": "Sprague Dawley rats", "assay": "Rat blood dialysis with NO gas supplied to the dialysate: 4-hour circulation achievement rate", "type": "in vivo", "conditions": "for 4-hour circulation achievement rate: rat blood dialysis", "method": "An extracorporeal perfusion type polymethylpentene membrane oxygenator was used for gas exchange.\n(§4) NO gas of which the concentration was adjusted to 200 ppm, 400 ppm, and 800 ppm was added to the dialysate via a gas exchanger. As a control group, nitrogen gas (N2) was added to the dialysate instead of NO gas.\n(§5) FIG. 3 is a schematic diagram showing the structure of a circulation circuit in which the dialyzer is connected to a rat. […] In a case where it was possible to perform the 4-hours circulation, the residual blood in the dialyzer was evaluated.\nDuring the experiment, there was a case where the dialyzer inlet pressure or venous pressure increased, the blood coagulation in the dialyzer or the blood coagulation in the circuit were determined, and the circulation was stopped halfway. Thus, in all groups, the number of 4-hour circulation achievements with respect to the total number of experiments was calculated as the 4-hour circulation achievement rate.\nFIG. 4 is a graph showing the 4-hour circulation achievement rate. In FIG. 4, “Control” indicates the results of the control group, and “200 ppm”, “400 ppm”, and “800 ppm” indicate the results of a group in which NO gas of each concentration was supplied to the dialysate."}, "Sprague Dawley rats [6]": {"test_system": "Sprague Dawley rats", "assay": "Measurement of NO concentration in blood and dialysate during rat blood dialysis (OxiSelect Nitrite/Nitrate kit)", "type": "in vivo", "conditions": "800 ppm NO gas; blood (out) venous side vs blood (in) arterial side of dialysis unit; 1 hour", "method": "as §4\nFor a group in which 800 ppm of NO gas was supplied to the dialysate, the dialysate was supplied to the blood (in) on an arterial side of the dialysis unit, the blood (out) on a venous side of the dialysis unit, the dialysate (in) in the dialysate supply channel for supplying the dialysate to the dialysis unit, and the dialysate (out) in the dialysate discharge channel for discharging the dialysate from the dialysis unit were collected 1 hour after the start of circulation, and the NO concentration was measured using a commercially available kit (“OxiSelect In Vitro Nitric Oxide (Nitrite/Nitrate) Assay Kit (Colorimetric)” made by Cell Biolabs, Inc.). The NO concentration was measured as the sum of the concentrations of NO2^− and NO3^− after the NO was completely hydrolyzed. For this reason, hereinafter, there is a case where the total concentration of […] is referred to as the NO concentration."}, "Sprague Dawley rats [7]": {"test_system": "Sprague Dawley rats", "assay": "Residual blood LDH activity value and residual blood Hb in the dialyzer after 4 hours of circulation (NO gas)", "type": "in vivo, rat", "conditions": "for amount of residual blood Hb: compared to control group", "method": "as §4, §5\nIn FIG. 6, “Control” indicates the results of the control group, and “200 ppm”, “400 ppm”, and “800 ppm” indicate the results of a group in which NO gas of each concentration was supplied to the dialysate."}, "Sprague Dawley rats [8]": {"test_system": "Sprague Dawley rats", "assay": "Methemoglobin (Met-Hb) during rat blood dialysis with NO gas", "type": "in vivo", "method": "as §4"}, "[9]": {"conditions": "80 μM sodium nitrite in dialysate, compared to control group"}, "[10]": {"conditions": "120 μM sodium nitrite in dialysate, compared to control group"}, "[11]": {"conditions": "extrapolated from the 200-800 ppm results"}},
  "note": "Where two headings read alike, the source gives them in different places.",
  "data": [
    {"compound": "CC(C)N(CCCN)/[N+]([O-])=N/O", "note": "[NOC5]", "values": [
      {"measurement": "Half-life", "setting": "[1]", "value": 25, "unit": "min"}
    ]},
    {"compound": "O=NO", "note": "[sodium nitrite]", "values": [
      {"measurement": "blood pressure (arterial pressure) during circulation", "setting": "Sprague Dawley rats [2]; 40 μM sodium nitrite in dialysate", "value": "stable for 4 hours"},
      {"measurement": "blood pressure (arterial pressure) during circulation", "setting": "Sprague Dawley rats [2]; 80 μM sodium nitrite in dialysate", "value": "stable for 4 hours"},
      {"measurement": "blood pressure (arterial pressure) during circulation", "setting": "Sprague Dawley rats [2]; 120 μM sodium nitrite in dialysate, vs control group", "value": "significantly lower"},
      {"measurement": "blood pressure (arterial pressure) during circulation", "setting": "Sprague Dawley rats [2]; 120 μM sodium nitrite in dialysate, vs control group, listed as nitrite ions", "value": "slight decrease"},
      {"measurement": "4 hours circulation", "setting": "Sprague Dawley rats [2]; sodium nitrite groups (40, 80, 120 μM) and control", "value": "circulate stably for 4 hours"},
      {"measurement": "Met-Hb concentration", "setting": "Sprague Dawley rats [3]", "value": "≤ 2", "unit": "%"},
      {"measurement": "residual blood LDH activity value", "setting": "Sprague Dawley rats [4]; 40 μM sodium nitrite in dialysate, compared to control group", "value": "significantly lower"},
      {"measurement": "residual blood LDH activity value", "setting": "Sprague Dawley rats [4]; 80 μM and 120 μM as compared to 40 μM", "value": "lower value"},
      {"measurement": "amount of residual blood Hb", "setting": "Sprague Dawley rats [4]; [9]", "value": "significantly lower"},
      {"measurement": "residual blood LDH activity value", "setting": "Sprague Dawley rats [4]; [9]", "value": "significantly lower"},
      {"measurement": "amount of residual blood Hb", "setting": "Sprague Dawley rats [4]; [10]", "value": "significantly lower"},
      {"measurement": "residual blood LDH activity value", "setting": "Sprague Dawley rats [4]; [10]", "value": "significantly lower"}
    ]},
    {"compound": "NCCN(CCN)/[N+]([O-])=N/O", "note": "[NOC18]", "values": [
      {"measurement": "Half-life", "setting": "[1]", "value": 1260, "unit": "min"}
    ]},
    {"compound": "nitric oxide [NO gas]", "values": [
      {"measurement": "NO concentration at which the 4-hour circulation achievement rate was 100%", "setting": "Sprague Dawley rats [5]; [11]", "value": 5.4, "unit": "µM"},
      {"measurement": "4-hour circulation achievement rate", "setting": "Sprague Dawley rats [5]; 800 ppm compared with 200 ppm and 400 ppm", "value": "higher"},
      {"measurement": "4-hour circulation achievement rate", "setting": "Sprague Dawley rats [5]; as the concentration of NO gas supplied to the dialysate was higher (200, 400, 800 ppm)", "value": "increased"},
      {"measurement": "amount of increase in NO concentration in blood", "setting": "Sprague Dawley rats [6]", "value": "about 3 μM"},
      {"measurement": "amount of residual blood Hb", "setting": "Sprague Dawley rats [7]; 200 ppm NO gas supplied to the dialysate", "value": "significantly lower"},
      {"measurement": "residual blood LDH activity value", "setting": "Sprague Dawley rats [7]; 200 ppm NO gas supplied to the dialysate, compared to control group (N2), after 4 hours", "value": "significantly lower"},
      {"measurement": "amount of residual blood Hb", "setting": "Sprague Dawley rats [7]; 400 ppm NO gas supplied to the dialysate", "value": "significantly lower"},
      {"measurement": "residual blood LDH activity value", "setting": "Sprague Dawley rats [7]; 400 ppm NO gas supplied to the dialysate, compared to control group (N2), after 4 hours", "value": "significantly lower"},
      {"measurement": "amount of residual blood Hb", "setting": "Sprague Dawley rats [7]; 800 ppm NO gas supplied to the dialysate", "value": "significantly lower"},
      {"measurement": "residual blood LDH activity value", "setting": "Sprague Dawley rats [7]; 800 ppm NO gas supplied to the dialysate, compared to control group (N2), after 4 hours", "value": "significantly lower"},
      {"measurement": "residual blood LDH activity value", "setting": "Sprague Dawley rats [7]; as the NO concentration was higher (200 to 800 ppm)", "value": "lower value"},
      {"measurement": "NO concentration at which the residual blood LDH activity value was 0 U/L", "setting": "Sprague Dawley rats [7]; [11]", "value": 6, "unit": "µM"},
      {"measurement": "Met-Hb", "setting": "Sprague Dawley rats [8]; 800 ppm NO gas", "value": "≤ 10", "unit": "%"},
      {"measurement": "adverse event", "setting": "Sprague Dawley rats [8]; NO gas of 200 ppm to 800 ppm supplied to the dialysate", "value": "no adverse event occurred"},
      {"measurement": "Met-Hb", "setting": "Sprague Dawley rats [8]; all NO-added groups (200 ppm to 800 ppm)", "value": "less than 10%"}
    ]},
    {"compound": "CCNCCN(CC)[N+]([O-])=NO", "note": "[NOC12]", "values": [
      {"measurement": "Half-life", "setting": "[1]", "value": 100, "unit": "min"}
    ]},
    {"compound": "CNCCCN(C)/[N+]([O-])=N/O", "note": "[NOC7]", "values": [
      {"measurement": "Half-life", "setting": "[1]", "value": 5, "unit": "min"}
    ]},
    {"compound": "CC/C(=C\\C(CNC(=O)c1cccnc1)=N\\O)C(C)[N+](=O)[O-]", "note": "(stereo not drawn) [NOR4]", "values": [
      {"measurement": "Half-life", "setting": "[1]", "value": 60, "unit": "min"}
    ]},
    {"compound": "COCC(/C(C)=C/C(=N/O)C(N)=O)[N+](=O)[O-]", "note": "(stereo not drawn) [NOR1]", "values": [
      {"measurement": "Half-life", "setting": "[1]", "value": 1.8, "unit": "min"}
    ]}
  ]
}
